From the NIST ThermoML archive (doi:10.1016/j.jct.2006.09.006)
Numbers after ± are expanded uncertainties. Each block holds one compound with its values, some of them ahead of it.

Assays:
[1] = 298.15 K; 101.33 kPa; Liquid
[2] = xn = mol fraction of the nth substance listed; details: 298.15 K, 101.3 kPa, Liquid

- mass density [1]: 1382.4 ± 1.5 kg/m3
Structure (SMILES): OCC(F)(F)F [2,2,2-trifluoroethanol]

- mass density ([2]; x2 = 0.0511): 1320 ± 1 kg/m3
- mass density ([2]; x2 = 0.1069): 1258.5 ± 0.9 kg/m3
- mass density ([2]; x2 = 0.1922): 1175.7 ± 0.7 kg/m3
- mass density ([2]; x2 = 0.2483): 1127.3 ± 0.6 kg/m3
- mass density ([2]; x2 = 0.2968): 1088.9 ± 0.5 kg/m3
- mass density ([2]; x2 = 0.4021): 1013.8 ± 0.4 kg/m3
- mass density ([2]; x2 = 0.4927): 957.1 ± 0.5 kg/m3
- mass density ([2]; x2 = 0.6059): 894 ± 0.5 kg/m3
- mass density ([2]; x2 = 0.6997): 846.9 ± 0.5 kg/m3
- mass density ([2]; x2 = 0.8024): 799.8 ± 0.6 kg/m3
- mass density ([2]; x2 = 0.9113): 754.2 ± 0.6 kg/m3
Structure (SMILES): OCC(F)(F)F [2,2,2-trifluoroethanol] + CC(C)OC(C)C

- mass density [1]: 1182.18 ± 0.48 kg/m3
Structure (SMILES): FC(F)(F)c1ccccc1 [(trifluoromethyl)benzene]

- mass density ([2]; x1 = 0.1051): 864 ± 0.4 kg/m3
- mass density ([2]; x1 = 0.1999): 921.7 ± 0.3 kg/m3
- mass density ([2]; x1 = 0.2454): 945.8 ± 0.3 kg/m3
- mass density ([2]; x1 = 0.3059): 975.2 ± 0.2 kg/m3
- mass density ([2]; x1 = 0.4057): 1017.5 ± 0.2 kg/m3
- mass density ([2]; x1 = 0.5022): 1052.8 ± 0.3 kg/m3
- mass density ([2]; x1 = 0.5855): 1079.7 ± 0.3 kg/m3
- mass density ([2]; x1 = 0.7052): 1113.7 ± 0.4 kg/m3
- mass density ([2]; x1 = 0.7886): 1134.9 ± 0.4 kg/m3
- mass density ([2]; x1 = 0.9032): 1161.5 ± 0.4 kg/m3
Structure (SMILES): FC(F)(F)c1ccccc1 [(trifluoromethyl)benzene] + CCO

- mass density [1]: 719.17 ± 0.96 kg/m3
Structure (SMILES): CC(C)OC(C)C [diisopropyl ether]

- mass density ([2]; x1 = 0.1072): 774.5 ± 0.5 kg/m3
- mass density ([2]; x1 = 0.2007): 766.1 ± 0.5 kg/m3
- mass density ([2]; x1 = 0.3086): 757.6 ± 0.5 kg/m3
- mass density ([2]; x1 = 0.403): 751 ± 0.5 kg/m3
- mass density ([2]; x1 = 0.4811): 746 ± 0.6 kg/m3
- mass density ([2]; x1 = 0.6142): 738.3 ± 0.6 kg/m3
- mass density ([2]; x1 = 0.6993): 733.8 ± 0.6 kg/m3
- mass density ([2]; x1 = 0.7432): 731.7 ± 0.6 kg/m3
- mass density ([2]; x1 = 0.7863): 729.6 ± 0.6 kg/m3
- mass density ([2]; x1 = 0.8965): 724.4 ± 0.6 kg/m3
- mass density ([2]; x1 = 0.9129): 723.6 ± 0.6 kg/m3
Structure (SMILES): CC(C)OC(C)C [diisopropyl ether] + CCO

- mass density [1]: 785.6 ± 0.24 kg/m3
Structure (SMILES): CCO [ethanol]
